Test results as given in patent publication EP0164635A2, “Imidazothiazolemethylene-acetohydrazide derivatives, preparation thereof and pharmaceutical composition having diuretic activity” (MEDIOLANUM FARMACEUTICI s.r.l., priority 1984, dated 1985).
Where “and” joins values, the source holds several entries; their conditions need not be identical. Identical values can stand only once.

Columns and labels:
rats = assay: Diuretic activity: urinary sodium excretion over 6 hours after oral administration; format: in vivo, rat; settings: rat, sodium urinary excretion in 6 h vs controls (control = 100), read-out: Diuretic effect %; for response vs control in vivo at 5 mg/kg: dose 5 mg/kg oral; for response vs control in vivo at 10 mg/kg: dose 10 mg/kg oral; for response vs control in vivo at 20 mg/kg: dose 20 mg/kg oral
Description: The first series of tests was carried out to rats orally administered with distilled water (25 ml/kg) containing the product under test, previously suspended in Tween 80 (1% v/v with respect to water). Urina of the 6 hours following the treatment was collected in order to measure the sodium concentration, by means of atomic absorption. The ratio of the meq/100 g of body weight of the treated animals to the corresponding ratio of the meq/100 g of body weight of the control animals (treated with the sole vehicle) was calculated, in order to determine the dose of the test compound doubling or trebling or anyway increasing the sodium excretion.

in vivo = settings: rat
rat [1] = assay: Excreted urinary volumes after oral administration, with a second water load after 0-3 h; format: in vivo
Description: (§1) The compounds were administered by the oral route, under the same conditions as described in the previous test, but the animals, after the O-3 hours interval, were treated with further 25 ml/kg of distilled water, by intubation.

rat [2] = assay: Excreted urinary electrolytes after oral administration, with a second water load after 0-3 h; format: in vivo
Description: as §1

Compound	LD50 (in vivo; ip)	LD50 (in vivo; po)	EXCRETED URINARY VOLUMES WITH RESPECT TO BODY WEIGHT (rat [1]; 10 mg/kg, 0-3 h)	EXCRETED URINARY VOLUMES WITH RESPECT TO BODY WEIGHT (rat [1]; 10 mg/kg, 0-6 h)	EXCRETED URINARY VOLUMES WITH RESPECT TO BODY WEIGHT (rat [1]; 10 mg/kg, 3-6 h)	EXCRETED URINARY ELECTROLYTES WITH RESPECT TO BODY WEIGHT, K^+ (rat [2]; 10 mg/kg, 0-3 h)	EXCRETED URINARY ELECTROLYTES WITH RESPECT TO BODY WEIGHT, Na^+ (rat [2]; 10 mg/kg, 0-3 h)	EXCRETED URINARY ELECTROLYTES WITH RESPECT TO BODY WEIGHT, K^+ (rat [2]; 10 mg/kg, 0-6 h)	EXCRETED URINARY ELECTROLYTES WITH RESPECT TO BODY WEIGHT, Na^+ (rat [2]; 10 mg/kg, 0-6 h)	EXCRETED URINARY ELECTROLYTES WITH RESPECT TO BODY WEIGHT, K^+ (rat [2]; 10 mg/kg, 3-6 h)	other results
Cc1ccc(-c2nc3sccn3c2C=NNC(=O)CN(C)C)cc1 [Example 5]	> 3000 mg/kg	> 3000 mg/kg	–	–	–	–	–	–	–	–	response vs control in vivo at 5 mg/kg (rats): 130%
Cc1cn2c(C=NNC(=O)CN(C)C)c(-c3ccccc3)nc2s1 [Example 8, N,N-Dimethylaminoacetyl-[[2-methyl-6-phenyl-imida-zo[2,1-b]thiazole-5-yl]methylene]hydrazide]	> 3000 mg/kg	> 3000 mg/kg	0.0345 L/kg	0.0509 L/kg	0.0164 L/kg	0.66 mEq/kg	2.24 mEq/kg	0.99 mEq/kg	2.39 mEq/kg	0.33 mEq/kg	EXCRETED URINARY VOLUMES WITH RESPECT TO BODY WEIGHT (rat [1]; 2.5 mg/kg, 0-3 h): 0.0265 L/kg; EXCRETED URINARY VOLUMES WITH RESPECT TO BODY WEIGHT (rat [1]; 2.5 mg/kg, 0-6 h): 0.0432 L/kg; EXCRETED URINARY VOLUMES WITH RESPECT TO BODY WEIGHT (rat [1]; 2.5 mg/kg, 3-6 h): 0.0167 L/kg; response vs control in vivo at 1 mg/kg (rats; dose 1 mg/kg oral): 300%; EXCRETED URINARY ELECTROLYTES WITH RESPECT TO BODY WEIGHT, Na^+ (rat [2]; 10 mg/kg, 3-6 h): 0.15 mEq/kg; EXCRETED URINARY ELECTROLYTES WITH RESPECT TO BODY WEIGHT, K^+ (rat [2]; head prints 10 mg/kg, 0-3 h): 0.48 mEq/kg; EXCRETED URINARY ELECTROLYTES WITH RESPECT TO BODY WEIGHT, Na^+ (rat [2]; head prints 10 mg/kg, 0-3 h): 1.32 mEq/kg; EXCRETED URINARY ELECTROLYTES WITH RESPECT TO BODY WEIGHT, K^+ (rat [2]; head prints 10 mg/kg, 0-6 h): 0.83 mEq/kg; EXCRETED URINARY ELECTROLYTES WITH RESPECT TO BODY WEIGHT, Na^+ (rat [2]; head prints 10 mg/kg, 0-6 h): 1.38 mEq/kg; EXCRETED URINARY ELECTROLYTES WITH RESPECT TO BODY WEIGHT, K^+ (rat [2]; head prints 10 mg/kg, 3-6 h): 0.35 mEq/kg; EXCRETED URINARY ELECTROLYTES WITH RESPECT TO BODY WEIGHT, Na^+ (rat [2]; head prints 10 mg/kg, 3-6 h): 0.056 mEq/kg
Cc1cn2c(C=NNC(=O)CN(C)C)c(C)nc2s1 [Example 6, N,N-dimethylamino-acetyl-[[2-methyl-6-methyl-imidazo[2,1-a]thiazole-5-yl]methylene]-hydrazide]	~600 mg/kg	~1000 mg/kg	–	–	–	–	–	–	–	–	response vs control in vivo at 10 mg/kg (rats): 180%
NS(=O)(=O)c1cc(C(=O)O)c(NCc2ccco2)cc1Cl [Furosemide, furosemide, reference compound]	–	–	0.0365 L/kg and 0.0265 L/kg	0.0451 L/kg and 0.0472 L/kg	0.0107 L/kg and 0.0186 L/kg	0.87 mEq/kg and 1.02 mEq/kg	1.30 mEq/kg and 1.82 mEq/kg	1.15 mEq/kg and 1.11 mEq/kg	1.38 mEq/kg and 1.85 mEq/kg	0.24 mEq/kg and 0.13 mEq/kg	response vs control in vivo at 10 mg/kg (rats): 490%
Cc1ccc(-c2nc3n(c2C=NNC(=O)CN(C)C)CCS3)cc1 [Example 12]	~600 mg/kg	~800 mg/kg	–	–	–	–	–	–	–	–	response vs control in vivo at 20 mg/kg (rats): 120%
CN(C)CC(=O)NN=Cc1c(-c2ccc(Cl)cc2)nc2sccn12 [Example 4]	> 1000 mg/kg	> 1000 mg/kg	–	–	–	–	–	–	–	–	response vs control in vivo at 20 mg/kg (rats): 170%
Cc1csc2nc(-c3ccccc3)c(C=NNC(=O)CN(C)C)n12 [Example 7]	> 3000 mg/kg	> 3000 mg/kg	0.0326 L/kg	0.0474 L/kg	0.0147 L/kg	1.04 mEq/kg	2.55 mEq/kg	1.29 mEq/kg	2.71 mEq/kg	0.25 mEq/kg	EXCRETED URINARY VOLUMES WITH RESPECT TO BODY WEIGHT (rat [1]; 2.5 mg/kg, 0-3 h): 0.0333 L/kg; EXCRETED URINARY VOLUMES WITH RESPECT TO BODY WEIGHT (rat [1]; 2.5 mg/kg, 0-6 h): 0.0469 L/kg; EXCRETED URINARY VOLUMES WITH RESPECT TO BODY WEIGHT (rat [1]; 2.5 mg/kg, 3-6 h): 0.0136 L/kg; response vs control in vivo at 0.5 mg/kg (rats; dose 0.5 mg/kg oral): 250%; EXCRETED URINARY ELECTROLYTES WITH RESPECT TO BODY WEIGHT, Cl^- (rat [2]; 10 mg/kg, 0-3 h): 2.55 mEq/kg; EXCRETED URINARY ELECTROLYTES WITH RESPECT TO BODY WEIGHT, Cl^- (rat [2]; 10 mg/kg, 0-6 h): 2.57 mEq/kg; EXCRETED URINARY ELECTROLYTES WITH RESPECT TO BODY WEIGHT, Cl^- (rat [2]; 10 mg/kg, 3-6 h): 0.025 mEq/kg; EXCRETED URINARY ELECTROLYTES WITH RESPECT TO BODY WEIGHT, Na^+ (rat [2]; 10 mg/kg, 3-6 h): 0.16 mEq/kg; EXCRETED URINARY ELECTROLYTES WITH RESPECT TO BODY WEIGHT, Cl^- (rat [2]; head prints 10 mg/kg, 0-3 h): 1.53 mEq/kg; EXCRETED URINARY ELECTROLYTES WITH RESPECT TO BODY WEIGHT, K^+ (rat [2]; head prints 10 mg/kg, 0-3 h): 0.93 mEq/kg; EXCRETED URINARY ELECTROLYTES WITH RESPECT TO BODY WEIGHT, Na^+ (rat [2]; head prints 10 mg/kg, 0-3 h): 2.03 mEq/kg; EXCRETED URINARY ELECTROLYTES WITH RESPECT TO BODY WEIGHT, Cl^- (rat [2]; head prints 10 mg/kg, 0-6 h): 1.53 mEq/kg; EXCRETED URINARY ELECTROLYTES WITH RESPECT TO BODY WEIGHT, K^+ (rat [2]; head prints 10 mg/kg, 0-6 h): 1.26 mEq/kg; EXCRETED URINARY ELECTROLYTES WITH RESPECT TO BODY WEIGHT, Na^+ (rat [2]; head prints 10 mg/kg, 0-6 h): 2.17 mEq/kg; EXCRETED URINARY ELECTROLYTES WITH RESPECT TO BODY WEIGHT, Cl^- (rat [2]; head prints 10 mg/kg, 3-6 h): 0.0 mEq/kg; EXCRETED URINARY ELECTROLYTES WITH RESPECT TO BODY WEIGHT, K^+ (rat [2]; head prints 10 mg/kg, 3-6 h): 0.33 mEq/kg; EXCRETED URINARY ELECTROLYTES WITH RESPECT TO BODY WEIGHT, Na^+ (rat [2]; head prints 10 mg/kg, 3-6 h): 0.14 mEq/kg
NS(=O)(=O)c1cc2c(cc1C(F)(F)F)NCNS2(=O)=O [Hydroflumethia-zide, hydroflumethiazide, reference compound]	–	–	–	–	–	–	–	–	–	–	response vs control in vivo at 5 mg/kg (rats): 260%; LD50 (in vivo; iv): 750 mg/kg
